Data taken from ChEMBL document CHEMBL1759980, “Aza-annulation on the 16-dehydropregnenolone, via tandem intermolecular aldol process and intramolecular Michael addition” (Bioorg Med Chem Lett, 2011).

What was measured:
Dipeptidyl peptidase 4 [1] = target: T1, Dipeptidyl peptidase 4 (Homo sapiens, UniProt P27487); test: Inhibition of human DPP-4 assessed as cleavage of substrate using H-Gly-Pro-pNA chromogenic substrate after 10 mins by double beam spectrophotometer
Target sequence in this assay (P27487 whole entry): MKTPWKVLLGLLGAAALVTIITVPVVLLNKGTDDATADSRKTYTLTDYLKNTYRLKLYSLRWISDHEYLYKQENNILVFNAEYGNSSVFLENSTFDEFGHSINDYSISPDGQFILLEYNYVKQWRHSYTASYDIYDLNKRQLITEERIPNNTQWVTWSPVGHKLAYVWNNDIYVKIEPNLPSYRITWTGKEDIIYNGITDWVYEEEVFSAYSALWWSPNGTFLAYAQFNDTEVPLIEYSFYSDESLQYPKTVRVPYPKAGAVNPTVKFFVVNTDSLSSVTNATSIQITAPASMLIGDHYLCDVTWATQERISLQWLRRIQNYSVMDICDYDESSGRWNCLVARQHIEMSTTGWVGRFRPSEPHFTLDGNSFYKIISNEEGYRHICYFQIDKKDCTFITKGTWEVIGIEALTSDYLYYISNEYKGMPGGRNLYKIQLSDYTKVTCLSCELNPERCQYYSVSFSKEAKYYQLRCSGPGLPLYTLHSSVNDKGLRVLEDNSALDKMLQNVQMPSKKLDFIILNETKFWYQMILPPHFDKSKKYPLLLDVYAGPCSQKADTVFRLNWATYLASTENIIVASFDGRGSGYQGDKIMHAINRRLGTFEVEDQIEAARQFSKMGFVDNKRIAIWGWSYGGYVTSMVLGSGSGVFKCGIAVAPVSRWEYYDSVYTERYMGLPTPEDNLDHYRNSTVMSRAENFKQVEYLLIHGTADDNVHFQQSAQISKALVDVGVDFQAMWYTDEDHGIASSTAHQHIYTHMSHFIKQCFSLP

Dipeptidyl peptidase 4 [2] = target: T1, Dipeptidyl peptidase 4; test: Inhibition of human DPP-4 assessed as cleavage of substrate using H-Gly-Pro-pNA chromogenic substrate at 10 uM after 10 mins by double beam spectrophotometer
Target sequence in this assay (P27487 whole entry, looked up): as the sequence (P27487 whole entry) above

SMILES | IC50 (Dipeptidyl peptidase 4 [1]) | inhibition (Dipeptidyl peptidase 4 [2])
CC(=O)O[C@H]1CC[C@@]2(C)C(=CC[C@@H]3[C@@H]2CC[C@]2(C)C(C(C)=O)=CC[C@@H]32)C1 | 35.6 µM | 17.3%
CCCN1C(c2ccc(OC)cc2)CC(=O)[C@H]2C1C[C@H]1[C@@H]3CC=C4C[C@@H](O)CC[C@]4(C)[C@H]3CC[C@]21C (stereo not given in full) | 32.7 µM | 20.4%
COc1ccc(/C=C/C(=O)C2=CC[C@H]3[C@@H]4CC=C5C[C@@H](O)CC[C@]5(C)[C@H]4CC[C@]23C)cc1OC | 26.2 µM | 24.1%

More lines, in order of falling IC50 (Dipeptidyl peptidase 4 [1]), values ahead:

IC50 (Dipeptidyl peptidase 4 [1]) | inhibition (Dipeptidyl peptidase 4 [2]) | SMILES
29.1 µM | 19.1% | CCCN1C(c2ccc(C(C)C)cc2)CC(=O)[C@H]2C1C[C@H]1[C@@H]3CC=C4C[C@@H](O)CC[C@]4(C)[C@H]3CC[C@]21C (stereo not given in full)
21.3 µM | 28.4% | CC(=O)[C@H]1C(NCc2ccccc2)C[C@H]2[C@@H]3CC=C4C[C@@H](O)CC[C@]4(C)[C@H]3CC[C@]12C (stereo not given in full)
